Measurements taken from patent US20140193436A1, “EXTRACELLULAR TARGETED DRUG CONJUGATES” (priority 2011, published 2014).
Where two headings read alike, the source gives them in different places.

Legend:
MB231 Breast cells = test: In vitro cytotoxicity assessment (CellTiter-Glo cell viability), MB231; type: cell-based, human
Excerpt: (§1) Cells and culture conditions: Cell lines H460, HT29, A549, PANC-1, MB231, FaDu, H69 and H929 were obtained from the American Type Culture Collection (ATCC), Manassas, Va. The malignant melanoma cell line LOX IMVI was obtained from the DCTD Tumor Repository, National Cancer Institute, Frederick, Md., The cell lines were maintained in the recommended media formulations and subcultured every 3 to 4 days. To activate expression of certain targets to which the drug moiety bind and/or to form Na,K-ATPase complexes with certain proteins, cells can be cultured in recommended media plus additives such as phorbol esters, various growth factors and cytokines such as VEGF, fibroblast growth factors, human growth factors, interleukins, and tumor necrosis factors. In addition, cells can be cocultured with other cells like human fibroblasts. Additionally, microtiter plates can be coated with various proteins like fibrinogen.
(§2) Cells were incubated in the presence of test compound for 72 hr prior to cell viability testing.

H69 SCLC cells = test: In vitro cytotoxicity assessment (CellTiter-Glo cell viability), H69; type: cell-based, human
Excerpt: as §1, §2

HT29 Colon cells = test: In vitro cytotoxicity assessment (CellTiter-Glo cell viability), HT29; type: cell-based, human
Excerpt: as §1, §2

A549 NSCLC cells = test: In vitro cytotoxicity assessment (CellTiter-Glo cell viability), A549; type: cell-based, human
Excerpt: as §1, §2

FaDu Head/neck cells = test: In vitro cytotoxicity assessment (CellTiter-Glo cell viability), FaDu; type: cell-based, human
Excerpt: as §1, §2

H460 LCLC cells = test: In vitro cytotoxicity assessment (CellTiter-Glo cell viability), H460; type: cell-based, human
Excerpt: as §1, §2

[1] = system: LOX Melanoma cells (LOX IMVI); test: In vitro cytotoxicity assessment (CellTiter-Glo cell viability), LOX; type: cell-based, human
Excerpt: as §1, §2

H929 Myeloma cells = test: In vitro cytotoxicity assessment (CellTiter-Glo cell viability), H929; type: cell-based, human
Excerpt: as §1, §2

PANC1 Pancreas cells = test: In vitro cytotoxicity assessment (CellTiter-Glo cell viability), PANC1; type: cell-based, human
Excerpt: as §1, §2

[2] = system: HT-29 human colon cancer xenograft; test: HT-29 human colon cancer xenograft model; type: in vivo, Hsd:Athymic Nude-Foxn1nu mice; settings: 15 mg/kg qd×5 (positive control); compared to vehicle
Experimental: Briefly, to establish a human colorectal adenocarcinoma disease model, tumors from HT-29 xenograft bearing mice were minced and 8 mm^3 fragments were transplanted s.c. by trocar needle into the left flank of Hsd:Athymic Nude-Foxn1^nu mice (Harlan, Indianapolis, Ind.). Therapy with EDC2.2 was then initiated when the tumor volume in groups of 7 animals averaged ˜100 mm^3. Treatment using vehicle control and either 1 or 5 mg/kg EDC2.2 was administered i.v. using the schedule of one injection every 3 days with 4 total injected doses (q3d×4). 15 mg/kg paclitaxel dosed at qd×5 served as a positive control treatment group. Tumor volumes were measured for each group using calibrated vernier calipers and plotted against first day of tumor implant for 69 days post-implant and 41 days post-initial dose. […] Therefore, EDCs that employ targeting moieties to CD147 conjugated to agents that act on the Na,K-ATPase should be generally useful in treating colon cancers.

## C[C@]12CC[C@H](OC3OC[C@H](N)[C@@H](O)[C@@H]3O)C=C1CCC1C2CC[C@]2(C)[C@@H](c3ccc(=O)oc3)CC[C@]12O (stereo partly shown) [CEN09-106]
MB231 Breast cells; MB231 Breast, 72 hr with test compound, read-out: EC50
  EC50: 3.3 nM
H69 SCLC cells; H69 SCLC, 72 hr with test compound, read-out: EC50
  EC50: 1 nM
HT29 Colon cells; HT29 Colon, 72 hr with test compound, read-out: EC50
  EC50: 2.9 nM
A549 NSCLC cells; A549 NSCLC, 72 hr with test compound, read-out: EC50
  EC50: 0.66 nM
FaDu Head/neck cells; FaDu Head/neck, 72 hr with test compound, read-out: EC50
  EC50: 3.1 nM
H460 LCLC cells; H460 LCLC, 72 hr with test compound, read-out: EC50
  EC50: 1.4 nM
[1]; LOX Melanoma, 72 hr with test compound, read-out: EC50
  EC50: 2.5 nM
H929 Myeloma cells; H929 Myeloma, 72 hr with test compound, read-out: EC50
  EC50: 3.1 nM
PANC1 Pancreas cells; PANC1 Pancreas, 72 hr with test compound, read-out: EC50
  EC50: 1.1 nM

## C[C@]12CC[C@H](O[C@H]3OC[C@H](NC(=O)CCOCCOCCOCCOCCOCCOCCOCCOCCOCCOCCOCCOCCOCCOCCOCCOCCOCCOCCOCCOCCOCCOCCOCCOCCNC(=O)CCN4C(=O)C=CC4=O)[C@H](O)C3O)C=C1CCC1C2CC[C@]2(C)[C@@H](c3ccc(=O)oc3)CC[C@]12O (stereo partly shown) [CEN010-105]
MB231 Breast cells; Homo sapiens, 72 h
  EC50: 109 nM
H69 SCLC cells; Homo sapiens, 72 h
  EC50: 26.6 nM
HT29 Colon cells; Homo sapiens, HT-29, 72 h
  EC50: 60 nM
A549 NSCLC cells; Homo sapiens, A549, 72 h
  EC50: 31.3 nM
FaDu Head/neck cells; Homo sapiens, FaDu, 72 h
  EC50: 75.5 nM
H460 LCLC cells; Homo sapiens, NCI-H460, 72 h
  EC50: 76.9 nM
[1]; Homo sapiens, LOX, 72 h
  EC50: 71 nM
H929 Myeloma cells; Homo sapiens, NCI-H929, 72 h
  EC50: 89.6 nM
PANC1 Pancreas cells; Homo sapiens, PANC-1, 72 h
  EC50: 27.1 nM

## CC(=O)O[C@H]1C(=O)[C@@]2(C)[C@H]([C@H](OC(=O)c3ccccc3)[C@]3(O)C[C@H](OC(=O)[C@H](O)[C@@H](NC(=O)c4ccccc4)c4ccccc4)C(C)=C1C3(C)C)[C@]1(OC(C)=O)CO[C@@H]1C[C@@H]2O [Paclitaxel, paclitaxel]
[2]
  growth inhibition of the tumor: 85%
